Assay results reported in publication PMC7284125, “Identification of annotated bioactive molecules that impair motility of the blood fluke Schistosoma mansoni” (International Journal for Parasitology: Drugs and Drug …, 2020).
Where two headings read alike, the source gives them in different places.

Experiments:
[1] = tested on: S. mansoni schistosomulae; assay: Phenotypic primary screen assay on schistosomulae (phenotype; viability by methylene blue dye exclusion); assay type: cell-based; settings: Schistosoma mansoni
S. mansoni adult worms = assay: Motility assay on adult parasites (pixel displacement, relative to DMSO control); assay type: cell-based, Schistosoma mansoni; settings: secondary screen, 10 μM
How it was run: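 Unpaired adult worms from mice 6 weeks post-infection kept in OPTI-MEM with 5% dialyzed FBS and exposed to compounds at 1 and 10 μM for 24 h. Motility filmed 1 min at 10 frames/s, quantified by pixel displacement versus DMSO-treated worms; recovery followed up to five days after washout.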

[2] = tested on: naïve Glo HEK293 cells (no receptor); assay: cAMP luminescence (GloSensor) assay on naïve Glo HEK293 cells (no receptor); assay type: cell-based, human; settings: for inhibition of EPN-evoked luminescence: 50 μM EPN; for effect on luminescence evoked by forskolin: 20 μM forskolin
Procedure: The SmGPR2 sequence previously identified ([El-Shehabi and Ribeiro, 2010]) was codon optimized for mammalian expression and subcloned in the vector pCI-neo (Addgene, USA) using the XbaI and NotI restriction enzymes. A FLAG fusion tag ([…]) was introduced at the N-terminal end of the receptor sequence. Stable transfection of HEK293 cells (ATCC; CRL-1573) was performed using the X-tremeGENE 9 DNA transfection reagent (Sigma Aldrich). Cells were then cultured at 37 °C, 5% CO2 in Opti-MEM supplemented with 5% FBS and maintained in 400 μg/mL G418 (Sigma Aldrich) for selection of transformants. […] All cell lines expressing S. mansoni GPCRs were then transfected with the GloSensor encoding plasmid p22F (Promega) and media was supplemented with 100 μg/mL hygromycin for stable expression (ThermoFisher).
Adherent HEK293 cells were seeded at a density of 5 x 10^4 cells/well (96-well plate) in Opti-MEM without FBS or antibiotics and incubated overnight at 37 °C and 5% CO2 prior to the assay. In place of the media, 100 μL HBSS supplemented with 0.1% bovine serum albumin (BSA), 500 μM 3-isobutyl-1-methylxanthine (IBMX, Sigma Aldrich), 20 mM HEPES (pH 7.4) and 1 mg/mL D-luciferin (Goldbio) was added to each well. After a 2 h incubation period at room temperature, luminescence background was recorded, and compounds and control ligands were added at 10X concentration. Immediately after compound addition, luminescence was read over a 45 min period to detect compounds stimulating cAMP release through receptor activation. […] For each assay, luminescence responses were recorded in triplicate and repeated with four independant cell batches. Compounds were also added to naïve Glo HEK293 cells (no receptor) and the robustness of the assay was calculated as: Z^'=1−3×(SDmax+SDmin)/Meanmax−Meanmin with max and min referring respectively to cells expressing GPCRs and Glo (no receptor) cells. Cellular viability was assessed using a CellTiter Glo 2.0 kit (Promega). Glo cells were exposed to 10 μM of each hit compound for 3 h in Opti-MEM at 37 °C, 5% CO2. An equimolar concentration of tamoxifen (Sigma Aldrich) was used as a positive control. 2X cell lysis media was then added and end-point luminescence recorded after a 10 min stabilization time.

[3] = tested on: S. mansoni schistosomulae; assay: Phenotypic primary screen assay on schistosomulae (phenotype; viability by methylene blue dye exclusion); assay type: cell-based, Schistosoma mansoni
How it was run: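 Parasites lacking contraction/relaxation cycles and showing dark internal granulations counted as dead. Movement and body shape were compared with DMSO-treated controls under a stereo microscope at 24 h and at five days of exposure. Larvae came from infected snails shed under light for 2 h at 32 °C.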

[4] = tested on: S. mansoni schistosomulae; assay: Motility assay on schistosomulae (pixel displacement, relative to DMSO control); assay type: cell-based, Schistosoma mansoni; settings: for activity at 1 µM: Schistosoma mansoni, read-out: Fractional motility; for motility in extended assay with reduced incubation times, in words: three-day old schistosomulae, incubation 1 h, 3 h, 6 h
How it was run: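 Motility was scored by pixel displacement from 1-min videos (10 frames/s) and compared with DMSO controls. Schistosomulae (200/well, Opti-MEM, 5% dialyzed FBS, no antibiotics) received compound at 1 or 10 μM for 24 h; selected hits were also followed at 1, 3, 6 and 12 h.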

SmD2 = SmD2 (Schistosoma mansoni, UniProt G4LUJ1); assay: cell-based; assay type: cell-based
Sm5HTR = Sm5HTR (Schistosoma mansoni, UniProt G4V5G4); assay: cAMP luminescence (GloSensor) assay, HEK293 cells expressing Sm5HTR; assay type: cell-based, S. mansoni; settings: compound incubation followed by 50 μM 5-HT
schistosomes [5] = tested on: schistosomes; design: method as in Marcellino et al., 2012; settings: ref Marcellino et al., 2012; cited from earlier work
schistosomes [6] = tested on: schistosomes; design: method as in Bibo-Verdugo et al., 2019; settings: in vitro; ref Bibo-Verdugo et al., 2019; cited from earlier work
proteasome = tested on: proteasome; design: method as in Bibo-Verdugo et al., 2019; settings: in vitro; ref Bibo-Verdugo et al., 2019; cited from earlier work
[7] = three-day-old schistosomulae, 10 μM, 24 h, calculated 5 days post compound exposure, read-out: Viability (%)
[8] = three-day-old schistosomulae, 10 μM, 24 h, estimated 5 days post compound exposure
[9] = 120 h, schistosomulae, secondary screen, 24h exposure, read at D5, 1 µM
[10] = schistosomulae, secondary screen, 24h exposure, read at D1, 1 µM
[11] = schistosomulae, secondary screen, 24h exposure, read at D1, 10 µM
[12] = schistosomulae, secondary screen, 24h exposure, read at D5, 10 µM
[13] = schistosomulae, 1h exposure, read at D1, 10 µM
[14] = schistosomulae, 1h exposure, read at D5, 10 µM
[15] = schistosomulae, 3h exposure, read at D1, 10 µM
[16] = schistosomulae, 3h exposure, read at D5, 10 µM
[17] = schistosomulae, 6h exposure, read at D1, 10 µM
[18] = schistosomulae, 6h exposure, read at D5, 10 µM
[19] = inhibition of EPN-evoked luminescence, SmD2 expressing HEK293 cells, read-out: IC50
[20] = NPS-2143 and analogs, 24h, D1, 10 µM
[21] = NPS-2143 and analogs, 24h, D5, 10 µM
[22] = 120 h, NPS-2143 and analogs, 24h, D5, 1 µM
[23] = NPS-2143 and analogs, 24h, D1, 1 µM

Sequence of SmD2 (G4LUJ1 entry or part of it): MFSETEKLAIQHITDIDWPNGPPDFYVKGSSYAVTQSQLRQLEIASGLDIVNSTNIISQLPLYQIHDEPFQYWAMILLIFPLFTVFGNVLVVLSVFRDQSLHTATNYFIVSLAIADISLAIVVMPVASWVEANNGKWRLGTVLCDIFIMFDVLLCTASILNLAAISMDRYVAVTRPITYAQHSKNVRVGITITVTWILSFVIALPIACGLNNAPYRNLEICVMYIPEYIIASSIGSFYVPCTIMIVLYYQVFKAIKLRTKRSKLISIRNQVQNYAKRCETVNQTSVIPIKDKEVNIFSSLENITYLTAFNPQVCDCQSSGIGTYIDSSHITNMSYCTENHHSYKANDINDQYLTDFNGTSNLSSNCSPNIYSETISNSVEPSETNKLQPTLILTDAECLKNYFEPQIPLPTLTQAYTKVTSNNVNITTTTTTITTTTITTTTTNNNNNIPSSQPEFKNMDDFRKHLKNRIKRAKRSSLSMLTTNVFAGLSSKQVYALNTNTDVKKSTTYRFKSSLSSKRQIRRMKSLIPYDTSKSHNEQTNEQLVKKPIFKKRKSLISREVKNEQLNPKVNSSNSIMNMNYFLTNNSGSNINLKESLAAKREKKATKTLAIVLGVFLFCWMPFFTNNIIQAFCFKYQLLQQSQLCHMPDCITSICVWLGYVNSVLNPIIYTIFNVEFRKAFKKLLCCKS
Sequence of Sm5HTR (G4V5G4 entry or part of it): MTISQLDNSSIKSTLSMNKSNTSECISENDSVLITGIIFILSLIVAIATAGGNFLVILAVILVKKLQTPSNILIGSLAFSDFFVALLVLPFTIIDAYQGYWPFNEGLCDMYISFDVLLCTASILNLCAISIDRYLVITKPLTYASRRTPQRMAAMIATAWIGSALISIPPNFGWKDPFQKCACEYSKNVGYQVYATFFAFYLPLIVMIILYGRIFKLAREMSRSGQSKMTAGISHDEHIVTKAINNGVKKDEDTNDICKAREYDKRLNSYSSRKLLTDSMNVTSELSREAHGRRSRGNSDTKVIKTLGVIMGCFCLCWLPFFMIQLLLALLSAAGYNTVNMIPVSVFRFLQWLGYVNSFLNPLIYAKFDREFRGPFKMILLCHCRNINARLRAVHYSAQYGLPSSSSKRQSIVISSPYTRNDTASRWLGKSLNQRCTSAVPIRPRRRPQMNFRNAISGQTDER

SMILES	viability at 10 µM [1, 7] [%]	Fractional motility (S. mansoni adult worms; D1, Female adult worms)	Fractional motility (S. mansoni adult worms; D1, Male adult worms)	Fractional motility (S. mansoni adult worms; D5, Female adult worms)	Fractional motility (S. mansoni adult worms; D5, Male adult worms)	Phenotype [3, 8]	activity at 1 µM [4, 9] [%]	activity at 1 µM [4, 10] [%]	Fractional motility [4, 11]	Fractional motility [4, 12]	Fractional motility [4, 13]	Fractional motility [4, 14]	Fractional motility [4, 15]	Fractional motility [4, 16]	Fractional motility [4, 17]	Fractional motility [4, 18]	IC50 (SmD2; [19]) [nM]	further results
O=C1CCc2ccc(OCCCCN3CCN(c4cccc(Cl)c4Cl)CC3)cc2N1 [Aripiprazole]	96.5	0.19	0.50	-0.80	-0.14	granulated	-61	-48	-0.15	-0.56	–	–	–	–	–	–	–	inhibition of EPN-evoked luminescence [2]: ≥ 50%
CNCC[C@H](Oc1cccc2ccccc12)c1cccs1 [Duloxetine]	–	0.62	4.31	0.30	0.54	–	–	–	–	–	–	–	–	–	–	–	–	viability at 10 µM [1]: 90%; inhibition of EPN-evoked luminescence [2]: ≥ 50%; Phenotype [3]: granulated; IC50 (SmD2): 5950 nM; inhibition at 10 µM (SmD2; HEK293, read-out: inhibition of EPN-evoked luminescence): ≥ 50%; activity at 1 µM ([4]; 120 h): -13%
CNCCc1ccc(O)c(O)c1 [EPN, epinine]	–	–	–	–	–	–	–	–	–	–	–	–	–	–	–	–	–	EC50 (SmD2; luminescent cAMP signal, agonist): 2520 ± 1120 nM
O=[N+]([O-])C=Cc1ccc2c(c1)OCO2 [MNS, 3,4-methylenedioxy-β-nitrostyrene]	43	-0.14	-0.40	-0.83	-0.55	blebbing, dark, granulated	103	241	2.46	-0.0952	-0.95	-0.06	-0.96	-0.87	-0.83	-0.87	–	effect on luminescence evoked by forskolin [2]: significant decrease in luminescence; inhibition of Sm5HTR 5-HT-evoked signals (Sm5HTR): ≥ 50%
O=[N+]([O-])c1ccc2c(c1)S(=O)(=O)C=C2 [Stattic]	–	0.39	-0.03	-0.90	0.23	big, dark, granulated	–	–	1.23	-0.96	-0.71	-0.69	-0.97	-1.00	-0.91	-0.99	–	effect on luminescence evoked by forskolin [2]: significant decrease in luminescence; Viability (%) ([3]; three-day-old schistosomulae, 10 μM, 24 h, calculated 5 days post compound exposure): 0%; Fractional motility [4, 10]: 0.84; Fractional motility ([4]; schistosomulae, secondary screen, 24h exposure, read at D5, 1 µM): -0.47; inhibition of Sm5HTR 5-HT-evoked signals (Sm5HTR): ≥ 50%
Cc1ccc(Sc2ccccc2N2CCNCC2)c(C)c1 [Vortioxetine]	10	2.64	2.15	0.24	1.01	big, granulated	–	–	–	–	–	–	–	–	–	–	3680	inhibition of EPN-evoked luminescence [2]: ≥ 50%; effect on viability of schistosomulae in words ([3]; 24 h incubation, five days): schistosomulicidal; inhibition at 10 µM (SmD2; HEK293, SmD2 cells, 10 μM compound, 50 μM EPN, read-out: inhibition of EPN-evoked luminescence): ≥ 50%; activity at 1 µM ([4]; 120 h, Selleckchem customized library secondary screen, 24h, D5, 1 µM): 60%; Fractional motility ([4]; Selleckchem customized library secondary screen, 24h, D1, 10 µM): 55.99; Fractional motility ([4]; Selleckchem customized library secondary screen, 24h, D5, 10 µM): -0.42; motility phenotype in words ([4]; schistosomulae, after 24 h exposure): high levels of hypermotility
COCCn1c2c([n+](Cc3cnccn3)c1C)C(=O)c1ccccc1C2=O [YM155]	40	0.22	1.90	-0.79	0.70	big, granulated	-82	-73	-0.91	-1.00	-0.48	-0.85	-0.70	-0.96	1.86	-1.00	–	motility in extended assay with reduced incubation times, in words [4]: significant and sustained hypomotility
O=C1Cc2cc(CCN3CCN(c4nsc5ccccc45)CC3)c(Cl)cc2N1 [Ziprasidone]	2.5	1.30	0.47	-0.12	0.73	dark, granulated	-73	0.0588	10.63	-1.00	9.35	-0.16	8.26	-0.06	0.49	0.31	–	hypermotility relative to control ([4]; schistosomulae, after 24 h incubation): 11 ± 2 fold; motility phenotype in words ([4]; schistosomulae, long-term, five days after compound washout): all parasites became paralyzed; motility in extended assay with reduced incubation times, in words [4]: did not exhibit a significant change before the 24 hr incubation cut-off
CC(C)C[C@H](NC(=O)[C@H](Cc1ccccc1)NC(=O)c1cnccn1)B(O)O [bortezomib]	–	–	–	–	–	–	–	–	–	–	–	–	–	–	–	–	–	motility reduction (schistosomes [5]): > 90%; reduction of worm motility (schistosomes [6]): > 85%; reduction of proteasome activity (proteasome): > 75%
COc1ccc(CCNCC(O)COc2ccccc2C2CC3CCC2C3)cc1OC (stereo not shown) [compound 28]	–	–	–	–	–	–	–	–	–	–	–	–	–	–	–	–	27.2	Fractional motility [4, 20]: -1.00; Fractional motility [4, 21]: -1.00; activity at 1 µM [4, 22]: -67%; activity at 1 µM [4, 23]: -69%
CC(=O)Nc1ccc(CCNCC(O)COc2cccc3ccccc23)cc1 (stereo not shown) [compound 31]	–	–	–	–	–	–	–	–	–	–	–	–	–	–	–	–	21.7	Fractional motility [4, 20]: -0.82; Fractional motility [4, 21]: -0.79; activity at 1 µM [4, 22]: -34%; activity at 1 µM [4, 23]: -69%
OC(CNCCc1ccccc1)COc1ccccc1C1CCCCC1 (stereo not shown) [compound 35]	–	–	–	–	–	–	–	–	–	–	–	–	–	–	–	–	12.3	Fractional motility [4, 20]: -0.99
O=C(CCCN1CCC2(CC1)C(=O)NCN2c1ccccc1)c1ccc(F)cc1 [spiperone]	–	–	–	–	–	–	–	–	–	–	–	–	–	–	–	–	1510	–
